Converted amounts (≈) assume the structure as drawn. The source made the active and inactive calls. The calls are words filed in the database; no cut-off is given here.
What was measured:
Type in all cases: functional
Bacillus subtilis = assay: Antimicrobial activity against Bacillus subtilis ATCC 6633 after overnight incubation by microdilution broth susceptibility assay
Enterococcus faecalis = assay: Antimicrobial activity against Enterococcus faecalis ATCC 29122 after overnight incubation by microdilution broth susceptibility assay
Streptococcus pyogenes = assay: Antimicrobial activity against Streptococcus pyogenes ATCC 176 after overnight incubation by microdilution broth susceptibility assay
Xanthomonas campestris = assay: Antimicrobial activity against Xanthomonas campestris A235 after overnight incubation by microdilution broth susceptibility assay
Salmonella enteritidis = assay: Antimicrobial activity against Salmonella enterica subsp. enterica serovar Enteritidis ATCC 1376 after overnight incubation by microdilution broth susceptibility assay
Staphylococcus aureus = assay: Antimicrobial activity against Staphylococcus aureus ATCC 29213 after overnight incubation by microdilution broth susceptibility assay
Proteus vulgaris = assay: Antimicrobial activity against Proteus vulgaris Kuk. 1329 after overnight incubation by microdilution broth susceptibility assay
Klebsiella pneumoniae = assay: Antimicrobial activity against Klebsiella pneumoniae A137 after overnight incubation by microdilution broth susceptibility assay
Pseudomonas aeruginosa = assay: Antimicrobial activity against Pseudomonas aeruginosa ATCC 9027 after overnight incubation by microdilution broth susceptibility assay
Escherichia coli = assay: Antimicrobial activity against Escherichia coli B3704 after overnight incubation by microdilution broth susceptibility assay

MIC (Bacillus subtilis) | MIC (Enterococcus faecalis) | MIC (Streptococcus pyogenes) | MIC (Xanthomonas campestris) | MIC (Salmonella enteritidis) | MIC (Staphylococcus aureus) | MIC (Proteus vulgaris) | MIC (Klebsiella pneumoniae) [µM] | MIC (Pseudomonas aeruginosa) | MIC (Escherichia coli) [µM] | Compound
232 µM (≈ 128 µg/mL) | inactive | inactive | inactive | inactive | inactive | inactive | 116 (≈ 63.9 µg/mL) | inactive | 116 (≈ 63.9 µg/mL) | CCCCCNC(=O)c1ccc(-n2nc(C(=O)NCCCCC)c(C(=O)c3ccccc3)c2-c2ccccc2)cc1
274 µM (≈ 128 µg/mL) | inactive | inactive | 274 µM (≈ 128 µg/mL) | inactive | inactive | inactive | 137 (≈ 63.9 µg/mL) | inactive | 137 (≈ 63.9 µg/mL) | CCNC(=O)c1ccc(-n2nc(C(=O)NCC)c(C(=O)c3ccccc3)c2-c2ccccc2)cc1
290 µM (≈ 128 µg/mL) | inactive | inactive | inactive | inactive | inactive | inactive | 145 (≈ 63.9 µg/mL) | inactive | 145 (≈ 63.9 µg/mL) | COC(=O)c1ccc(-n2nc(C(=O)OC)c(C(=O)c3ccccc3)c2-c2ccccc2)cc1
303 µM (≈ 128 µg/mL) | inactive | inactive | 303 µM (≈ 128 µg/mL) | inactive | inactive | inactive | 152 (≈ 64.2 µg/mL) | 303 µM (≈ 128 µg/mL) | 152 (≈ 64.2 µg/mL) | Cn1nc(-c2ccccc2)c2c(-c3ccccc3)n(-c3ccc(C(=O)O)cc3)nc2c1=O
197 µM (≈ 128 µg/mL) | inactive | inactive | inactive | inactive | inactive | inactive | 99 (≈ 64.2 µg/mL) | inactive | 99 (≈ 64.2 µg/mL) | O=C(NC(=O)c1ccc(-n2nc(C(=O)NC(=O)Nc3ccccc3)c(C(=O)c3ccccc3)c2-c2ccccc2)cc1)Nc1ccccc1
inactive | inactive | inactive | inactive | inactive | inactive | inactive | 156 (≈ 64 µg/mL) | inactive | 156 (≈ 64 µg/mL) | NC(=O)c1ccc(-n2nc(C(N)=O)c(C(=O)c3ccccc3)c2-c2ccccc2)cc1
inactive | inactive | inactive | 285 µM (≈ 128 µg/mL) | inactive | inactive | inactive | 142 (≈ 63.8 µg/mL) | inactive | 142 (≈ 63.8 µg/mL) | O=C(Cl)c1ccc(-n2nc(C(=O)Cl)c(C(=O)c3ccccc3)c2-c2ccccc2)cc1
137 µM (≈ 64.2 µg/mL) | inactive | inactive | inactive | inactive | inactive | inactive | 137 (≈ 64.2 µg/mL) | inactive | 137 (≈ 64.2 µg/mL) | CCOC(=O)c1ccc(-n2nc(C(=O)OCC)c(C(=O)c3ccccc3)c2-c2ccccc2)cc1
242 µM (≈ 128 µg/mL) | inactive | inactive | inactive | inactive | inactive | inactive | 121 (≈ 64 µg/mL) | 242 µM (≈ 128 µg/mL) | 121 (≈ 64 µg/mL) | O=C(O)c1ccc(-n2nc3c(=O)n(-c4ccc(C(=O)O)cc4)nc(-c4ccccc4)c3c2-c2ccccc2)cc1
245 µM (≈ 128 µg/mL) | inactive | inactive | 245 µM (≈ 128 µg/mL) | inactive | inactive | inactive | 123 (≈ 64.3 µg/mL) | inactive | 123 (≈ 64.3 µg/mL) | CCN(CC)C(=O)c1ccc(-n2nc(C(=O)N(CC)CC)c(C(=O)c3ccccc3)c2-c2ccccc2)cc1
129 µM (≈ 64.1 µg/mL) | inactive | inactive | 258 µM (≈ 128 µg/mL) | inactive | inactive | inactive | 129 (≈ 64.1 µg/mL) | inactive | 129 (≈ 64.1 µg/mL) | CC(C)OC(=O)c1ccc(-n2nc(C(=O)OC(C)C)c(C(=O)c3ccccc3)c2-c2ccccc2)cc1
313 µM (≈ 128 µg/mL) | inactive | inactive | 313 µM (≈ 128 µg/mL) | inactive | inactive | 157 µM (≈ 64.1 µg/mL) | 157 (≈ 64.1 µg/mL) | 157 µM (≈ 64.1 µg/mL) | 157 (≈ 64.1 µg/mL) | O=C(O)c1ccc(-n2nc3c(=O)[nH]nc(-c4ccccc4)c3c2-c2ccccc2)cc1
171 µM (≈ 64 µg/mL) | inactive | inactive | 342 µM (≈ 128 µg/mL) | inactive | inactive | inactive | 171 (≈ 64 µg/mL) | inactive | 171 (≈ 64 µg/mL) | N#Cc1ccc(-n2nc(C#N)c(C(=O)c3ccccc3)c2-c2ccccc2)cc1
74 µM (≈ 23.9 µg/mL) | 37 µM (≈ 12 µg/mL) | 37 µM (≈ 12 µg/mL) | 37 µM (≈ 12 µg/mL) | 74 µM (≈ 23.9 µg/mL) | 19 µM (≈ 6.14 µg/mL) | 74 µM (≈ 23.9 µg/mL) | 37 (≈ 12 µg/mL) | 74 µM (≈ 23.9 µg/mL) | 19 (≈ 6.14 µg/mL) | O=C(N[C@H](CO)[C@H](O)c1ccc([N+](=O)[O-])cc1)C(Cl)Cl [CHLORAMPHENICOL]
244 µM (≈ 128 µg/mL) | inactive | inactive | inactive | inactive | inactive | inactive | 122 (≈ 64 µg/mL) | inactive | 122 (≈ 64 µg/mL) | CNC(=O)NC(=O)c1ccc(-n2nc(C(=O)NC(=O)NC)c(C(=O)c3ccccc3)c2-c2ccccc2)cc1
122 µM (≈ 64 µg/mL) | inactive | inactive | 244 µM (≈ 128 µg/mL) | inactive | inactive | inactive | 122 (≈ 64 µg/mL) | inactive | 122 (≈ 64 µg/mL) | CCCCOC(=O)c1ccc(-n2nc(C(=O)OCCCC)c(C(=O)c3ccccc3)c2-c2ccccc2)cc1
310 µM (≈ 128 µg/mL) | inactive | inactive | 78 µM (≈ 32.2 µg/mL) | inactive | 310 µM (≈ 128 µg/mL) | inactive | 155 (≈ 63.9 µg/mL) | inactive | 155 (≈ 63.9 µg/mL) | O=C(O)c1ccc(-n2nc(C(=O)O)c(C(=O)c3ccccc3)c2-c2ccccc2)cc1
264 µM (≈ 128 µg/mL) | inactive | inactive | 264 µM (≈ 128 µg/mL) | inactive | inactive | inactive | 132 (≈ 64 µg/mL) | 132 µM (≈ 64 µg/mL) | 132 (≈ 64 µg/mL) | O=C(O)c1ccc(-n2nc3c(=O)n(-c4ccccc4)nc(-c4ccccc4)c3c2-c2ccccc2)cc1
189 µM (≈ 128 µg/mL) | inactive | inactive | inactive | inactive | inactive | inactive | 95 (≈ 64.3 µg/mL) | inactive | 95 (≈ 64.3 µg/mL) | O=C(NCc1ccccc1)NC(=O)c1ccc(-n2nc(C(=O)NC(=O)NCc3ccccc3)c(C(=O)c3ccccc3)c2-c2ccccc2)cc1
inactive | inactive | inactive | inactive | inactive | inactive | inactive | 117 (≈ 63.9 µg/mL) | inactive | 117 (≈ 63.9 µg/mL) | O=C(O)c1ccc(N/N=C(\c2ccccc2)c2c(-c3ccccc3)nn(-c3ccc(C(=O)O)cc3)c(=O)c2O)cc1

Source: ChEMBL document CHEMBL3045104, “Synthesis and antibacterial activity of 4-benzoyl-1-(4-carboxy-phenyl)-5-phenyl-1H-pyrazole-3-carboxylic acid and derivatives” (2009)
